Reference: publication PMC7717705, “Topoisomerases inhibition and DNA binding mode of daunomycin–oligoarginine conjugate” (Journal of Enzyme Inhibition and Medicinal Chemistry, 2020)

Legend:
DNA plasmid (pBs) = test: Fluorescence quenching titration with plasmid DNA; type: binding; conditions: drug 10 µM, pBs plasmid 5 to 40 nM, 20 mM Tris pH 7.5, 5 min equilibrium, room temperature
Method: (§1) Fluorescence measurements of Dau and Dau-Arg6 were carried out with a JASCO spectrofluorimeter (FP8200) using Quartz cells of 1 cm. Spectra were recorded at drug concentration of 10 µM in a final volume of 1 ml of 20 mM Tris buffer (pH 7.5).
For quenching experiment fluorescence titrations were conducted by keeping the concentration of drugs constant and varying the concentration of pBs plasmid from 5 to 40 nM. The spectroscopic measurements were recorded after 5 min to reach the equilibrium between the drugs and DNA. The spectra were recorded at room temperature in the wavelengths range of λ = 500–700 nm.

h-TopoI = h-TopoI DNA relaxation assay (negatively supercoiled pBluescript plasmid, agarose gel); type: biochemical, human; conditions: drug 1.2 uM (not saturating); h-TopoI 100 nM; plasmid 7.5 nM; drug-DNA pre-incubation 10 min at 4 °C, then 60 min at 37 °C; pH 7.0; 1.2% agarose gel, ethidium bromide
Method: (§2) Human topoisomerase IIα (h-TopoIIα) was purchased from Affymetrix (product number 78303) and stored at −20 °C. Human Topoisomerase I (Sigma, St. Louis, MO). pBluescript (pBs) negatively supercoiled plasmid was directly extracted from an over-night E. coli cell culture by Invitrogen HiPure Plasmid Midi prep Kit according to the instruction of the manufacturers.
(§3) DNA relaxation assays were performed as previously described[24]^,[25] using the negative supercoiled pBluScript plasmid (pBS) purified from Escherichia coli as a substrate of DNA topoisomerases.
For h-TopoI assay the enzyme (100 nM), was incubated for 60 min at 37 °C with negatively supercoiled pBluescript plasmid (7.5 nM) in a final volume of 20 µL of 1X reaction Buffer (10 mM Tris-HCl, pH 7.0, 100 mM NaCl, 0.1 mM NaEDTA, 10 mM MgCL2 and 50 µg/ml BSA). […]
(§4) All reactions were stopped by the addition of SDS to a final concentration of 1% and the products were analysed by electrophoresis on a 1.2% agarose gel in presence of 0.5X Tris-Borate EDTA buffer. […] Finally the DNA bands were visualised using a BioRad Versadoc imaging system and quantified by Quantity One® software. The relative intensity of each band in the experiment was measured and used to calculate the amount of total DNA and the fraction of total products. For each condition the relaxation activity was expressed as a percentage of DNA products on total DNA[26].

Calf Thymus-DNA (ctDNA) = test: DNA thermal melting monitored by circular dichroism; type: binding; conditions: 4 µM drug, ctDNA 0.2 mg/mL, Tris–HCl buffer, λ = 260 nm
Method: Melting studies were performed on a JascoJ-810 spectropolarimeter as described above by raising the temperature from 5 to 90 °C in 1 °C/min increments using a circulating water bath and monitoring the profiles at λ = 260 nm.
The DNA thermal melting was measured by monitoring the changes of HT[V] signal with temperature. Melting temperatures (Tm) were determined for each transition data by fitting sigmoidal curves using Boltzmann equations and obtaining good R-squared values (>0.95).

h-TopoIIα = h-TopoIIα DNA relaxation assay (negatively supercoiled pBs plasmid, agarose gel); type: biochemical, human; conditions: drug 1.2 μM; h-TopoIIα 0.4 units; pBs 7.5 nM; drug-DNA pre-incubation 10 min at 4 °C, then 30 min at 30 °C; pH 7.9, 1 mM ATP; 1.2% agarose gel, ethidium bromide; three independent assays
Method: as §2, §3
For h-TopoII-α assay the enzyme (0.4 units) was incubated for 30 min at 30 °C with negatively supercoiled pBS plasmid (7.5 nM), in a final volume of 20 µl of 1× reaction Buffer (10 mM Tris-HCl, pH 7.9, 50 mM NaCl, 50 mM KCl, 0.1 mM EDTA, 5 mM MgCl2, 15 µg/ml BSA, 1 mM ATP). […]
as §4

Calf Thymus DNA (ctDNA) = test: Circular dichroism / induced circular dichroism (ICD) of ctDNA; type: binding
Method: Circular dichroism (CD) measurements were performed on a JascoJ-810 spectropolarimeter using a 0.1 cm path-length quartz cuvette at room temperature and the following parameters: three scans at a speed of 20 nm/min, 3 accumulations, 4 s time constant, 1 nm band width and 0.2 nm data pitch.
The spectral bandwidth was set up at 1 nm in the wavelength range of λ = 225–300 nm. The CD spectra of Calf Thymus DNA (ctDNA; 0.2 mg/mL) with or without drug (at selected concentrations) were measured under a nitrogen atmosphere using a 10 mM Tris-HCl buffer at pH 7.5. Results are presented as a mean of three scans and the buffer background was electronically subtracted from each measurement.
ICD measurements were recorded by keeping the concentration of ctDNA constant (0.2 mg/mL) and increasing drugs concentrations from 0 to 120 µM.

[1] = Fluorescence emission spectrum; type: physicochemical; conditions: drug 10 µM in 20 mM Tris buffer, pH 7.5; λ = 500–750 nm
Method: as §1

What does the source list for `COc1cccc2c1C(=O)c1c(O)c3c(c(O)c1C2=O)C[C@@](O)(C(C)=O)C[C@@H]3O[C@H]1C[C@H](N)[C@H](O)[C@H](C)O1` [Dau, daunomycin]?
fluorescence intensity on titration with DNA plasmid (DNA plasmid (pBs)): decreases with increasing concentration of DNA; inhibition of the TopoI activity (DNA relaxation) (h-TopoI): 20%; melting temperature (Tm) of ctDNA with drug (Calf Thymus-DNA (ctDNA); 5 to 90 °C at 1 °C/min, Boltzmann fit, ctDNA alone 81.3 °C): 90.3 °C; increase in melting temperature of ctDNA (Calf Thymus-DNA (ctDNA); versus ctDNA without drugs (81 °C)): about 9 °C; inhibition of the total h-TopoIIα activity (DNA relaxation) (h-TopoIIα): 50%; DNA binding mode (Calf Thymus DNA (ctDNA); CD studies with ctDNA 0.2 mg/mL, 10 mM Tris-HCl pH 7.5): mainly by intercalation; change of negative CD band of ctDNA at λ = 245 nm (Calf Thymus DNA (ctDNA); ctDNA 0.2 mg/mL, 10 mM Tris-HCl pH 7.5, room temperature, increasing drug concentration, mean of three scans): shifting to zero level; emission maximum λmax [1]: 596 nm
